Test results from US6956059B2, “Anti-inflammatory and immunomodulatory amino acid derivatives, their preparation and use” (Croda International, plc, priority 2001, dated 2005).

Tested on: blood-brain barrier
Assay: transport across the blood-brain barrier (methodology of Dehouck et al); cytotoxicity observation
Type: cell-based
Details: used at the concentration of 5 μm/l; blood-brain barrier transport experiments
Description: In accordance with the methodology described by Dehouck et al in J Cont Rel 81-91 (1992), experiments were performed to study the transport of the compound of Example 2 across the blood-brain barrier.

Compound: CCCCCCCC/C=C\CCCCCCCCCCCCCC(=O)NCCCC[C@H](NC(=O)CCCCCCCCCCCCC/C=C\CCCCCCCC)C(=O)OCC [Example 2, Nα,Nε-di-(z-15-tetracosenoyl)-L-lysine ethyl ester]
- cytotoxicity: not cytotoxic
